Data taken from patent US9833497B2, “Human originated EGF domain proteins and use of the same” (CHENGDU SOURCEBIO LIMITED-LIABILITY COMPANY, priority 2013, dated 2017).

Key:
Format in all cases: cell-based
[1] = system: E. coli DH5α; assay: Antibacterial activity: MIC and growth curve against E. coli DH5α in 96-well plate; details: minimal inhibitory concentration against E. coli DH5α; 96-well plate, 5×10^5 CFU/mL, 37° C., judged after 8 h
Outline: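 Log-phase DH5α (OD600 about 0.5, 37° C, 185 rpm in LB) was pelleted, resuspended in fresh LB and seeded at 5×10^5 CFU/mL with recombinant protein at 50, 25 and 12.5 μg/mL (two-fold series), in triplicate. Plates were shaken at 175 rpm, 37° C, and OD600 was read every 30 min. MIC was the lowest concentration with no growth.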

[2] = system: E. coli BL21; assay: MIC against Gram-negative bacteria: E. coli BL21
Outline: (§1)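 Bacteria grown in LB at 37° C to McFarland 0.5, resuspended and seeded at 5×10^5 CFU/mL in 96-well plates. Purified human EGF-domain proteins two-fold serially diluted, triplicate wells; cultured at 37° C, shaking 175 rpm. MIC = lowest protein concentration with no growth.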

[3] = system: Pseudomonas aeruginosa; assay: MIC against Gram-negative bacteria: Pseudomonas aeruginosa
Outline: as §1

[4] = system: Klebsiella pneumonia; assay: MIC against Gram-negative bacteria: Klebsiella pneumonia
Outline: as §1

[5] = system: Enterobacter cloacae; assay: MIC against Gram-negative bacteria: Enterobacter cloacae
Outline: as §1

[6] = system: Aeromonas hydrophila; assay: MIC against Gram-negative bacteria: Aeromonas hydrophila
Outline: as §1

[7] = system: Citrobacter diversus; assay: MIC against Gram-negative bacteria: Citrobacter diversus
Outline: as §1

[8] = system: Moraxella catarrhalis; assay: MIC against Gram-negative bacteria: Moraxella catarrhalis
Outline: as §1

[9] = system: Proteus mirabilis; assay: MIC against Gram-negative bacteria: Proteus mirabilis
Outline: as §1

[10] = system: Proteus vulgaris; assay: MIC against Gram-negative bacteria: Proteus vulgaris
Outline: as §1

[11] = system: Serratia marcescens; assay: MIC against Gram-negative bacteria: Serratia marcescens
Outline: as §1

[12] = 10 h cultivation at 37° C., 5×10^5 CFU/mL, two-fold serial dilution
[13] = E. coli BL21, 96-well plate, 5×10^5 CFU/mL, 37° C., 10 h
[14] = Pseudomonas aeruginosa, 96-well plate, 5×10^5 CFU/mL, 37° C., 10 h
[15] = Klebsiella pneumonia, 96-well plate, 5×10^5 CFU/mL, 37° C., 10 h
[16] = Enterobacter cloacae, 96-well plate, 5×10^5 CFU/mL, 37° C., 10 h
[17] = Aeromonas hydrophila, 96-well plate, 5×10^5 CFU/mL, 37° C., 10 h
[18] = Citrobacter diversus, 96-well plate, 5×10^5 CFU/mL, 37° C., 10 h
[19] = Moraxella catarrhalis, 96-well plate, 5×10^5 CFU/mL, 37° C., 10 h
[20] = Proteus mirabilis, 96-well plate, 5×10^5 CFU/mL, 37° C., 10 h
[21] = Proteus vulgaris, 96-well plate, 5×10^5 CFU/mL, 37° C., 10 h
[22] = Serratia marcescens, 96-well plate, 5×10^5 CFU/mL, 37° C., 10 h
[23] = 96-well plate, 5×10^5 CFU/mL, 37° C., 10 h
[24] = E. coli BL21, 10 h cultivation at 37° C., 5×10^5 CFU/mL
[25] = P. aeruginosa, 10 h cultivation at 37° C., 5×10^5 CFU/mL
[26] = K. pneumonia, 10 h cultivation at 37° C., 5×10^5 CFU/mL
[27] = E. cloacae, 10 h cultivation at 37° C., 5×10^5 CFU/mL
[28] = A. hydrophila, 10 h cultivation at 37° C., 5×10^5 CFU/mL
[29] = C. diversus, 10 h cultivation at 37° C., 5×10^5 CFU/mL
[30] = M. catarrhalis, 10 h cultivation at 37° C., 5×10^5 CFU/mL
[31] = P. mirabilis, 10 h cultivation at 37° C., 5×10^5 CFU/mL
[32] = P. vulgaris, 10 h cultivation at 37° C., 5×10^5 CFU/mL
[33] = S. marcescens, 10 h cultivation at 37° C., 5×10^5 CFU/mL

PRT1095 (EVQWCGFSPCPHGAQCQPVLQGFECIANAVFNGQSGQ; listed as Homo sapiens)
50 µg/mL: MIC [1] | MIC P. aeruginosa [3, 12] | MIC M. catarrhalis [8, 12] | MIC S. marcescens [11, 12]
25 µg/mL: MIC K. pneumonia [4, 12] | MIC A. hydrophila [6, 12] | MIC C. diversus [7, 12] | MIC P. mirabilis [9, 12]
12.5 µg/mL: MIC E. coli BL21 [2, 12] | MIC E. cloacae [5, 12] | MIC P. vulgaris [10, 12]

PRT23 (KKNPCNAEFQNFCIHGECKYIEHLEAVTCKCQQEYFGERCG; listed as Homo sapiens)
12.5 µg/mL: MIC [1] | MIC (μg/mL) P. aeruginosa [3, 14] | MIC (μg/mL) K. pneumonia [4, 15] | MIC (μg/mL) A. hydrophila [6, 17]
25 µg/mL: MIC (μg/mL) E. coli BL21 [2, 13] | MIC (μg/mL) E. cloacae [5, 16] | MIC (μg/mL) M. catarrhalis [8, 19] | MIC (μg/mL) P. vulgaris [10, 21]
50 µg/mL: MIC (μg/mL) C. diversus [7, 18] | MIC (μg/mL) P. mirabilis [9, 20] | MIC (μg/mL) S. marcescens [11, 22]

PRT82 (CDCYPTGSLSRVCDPEDGQCPCKPGVIGRQCDRCDNPFAEVTTNGCEV; listed as Homo sapiens)
100 µg/mL: MIC (μg/mL) M. catarrhalis [8, 19]
25 µg/mL: MIC [1] | MIC (μg/mL) P. aeruginosa [3, 14] | MIC (μg/mL) E. cloacae [5, 16]
12.5 µg/mL: MIC (μg/mL) E. coli BL21 [2, 13] | MIC (μg/mL) A. hydrophila [6, 17] | MIC (μg/mL) P. mirabilis [9, 20] | MIC (μg/mL) P. vulgaris [10, 21] | MIC (μg/mL) S. marcescens [11, 22]
50 µg/mL: MIC (μg/mL) K. pneumonia [4, 15] | MIC (μg/mL) C. diversus [7, 18]

PRT498 (CDCNPHGSVHGDCDRTSGQCVCRLGASGLRCDECEPRHILMETDCVS; listed as Homo sapiens)
50 µg/mL: MIC against E. coli BL21 [2, 23]
25 µg/mL: MIC against C. diversus [7, 23] | MIC against P. mirabilis [9, 23] | MIC against S. marcescens [11, 23]
12.5 µg/mL: MIC [1] | MIC against P. aeruginosa [3, 23] | MIC against K. pneumonia [4, 23] | MIC against E. cloacae [5, 23] | MIC against A. hydrophila [6, 23] | MIC against M. catarrhalis [8, 23] | MIC against P. vulgaris [10, 23]

PRT898 (NNNECESNPCVNGGTCKDMTSGYVCTCREGFSGPNCQ; listed as Homo sapiens)
12.5 µg/mL: MIC ([4]; K. pneumonia, 10 h cultivation at 37° C.) | MIC ([6]; A. hydrophila, 10 h cultivation at 37° C.) | MIC ([7]; C. diversus, 10 h cultivation at 37° C.) | MIC ([8]; M. catarrhalis, 10 h cultivation at 37° C.) | MIC ([9]; P. mirabilis, 10 h cultivation at 37° C.) | MIC ([11]; S. marcescens, 10 h cultivation at 37° C.)
50 µg/mL: MIC ([2]; E. coli BL21, 10 h cultivation at 37° C.) | MIC ([5]; E. cloacae, 10 h cultivation at 37° C.)
25 µg/mL: MIC [1] | MIC ([3]; P. aeruginosa, 10 h cultivation at 37° C.) | MIC ([10]; P. vulgaris, 10 h cultivation at 37° C.)

PRT1370 (GVRSCPGDCRGRGRCESGRCMCWPGYTGRDC; listed as Homo sapiens)
50 µg/mL: MIC against K. pneumonia ([4]; Klebsiella pneumonia, 5×10^5 CFU/mL, 10 h cultivation at 37° C.) | MIC against P. mirabilis ([9]; Proteus mirabilis, 5×10^5 CFU/mL, 10 h cultivation at 37° C.)
25 µg/mL: MIC [1] | MIC against P. aeruginosa ([3]; Pseudomonas aeruginosa, 5×10^5 CFU/mL, 10 h cultivation at 37° C.) | MIC against E. cloacae ([5]; Enterobacter cloacae, 5×10^5 CFU/mL, 10 h cultivation at 37° C.) | MIC against A. hydrophila ([6]; Aeromonas hydrophila, 5×10^5 CFU/mL, 10 h cultivation at 37° C.) | MIC against M. catarrhalis ([8]; Moraxella catarrhalis, 5×10^5 CFU/mL, 10 h cultivation at 37° C.) | MIC against P. vulgaris ([10]; Proteus vulgaris, 5×10^5 CFU/mL, 10 h cultivation at 37° C.)
12.5 µg/mL: MIC against E. coli BL21 ([2]; E. coli BL21, 5×10^5 CFU/mL, 10 h cultivation at 37° C.) | MIC against C. diversus ([7]; Citrobacter diversus, 5×10^5 CFU/mL, 10 h cultivation at 37° C.) | MIC against S. marcescens ([11]; Serratia marcescens, 5×10^5 CFU/mL, 10 h cultivation at 37° C.)

PRT774 (LTLRCDYYGCNQTADDCLNGLACDCKSDLQRPNPQSPFCV; listed as Homo sapiens)
12.5 µg/mL: MIC (μg/mL) E. coli BL21 [2, 24] | MIC (μg/mL) P. aeruginosa [3, 25] | MIC (μg/mL) E. cloacae [5, 27] | MIC (μg/mL) C. diversus [7, 29] | MIC (μg/mL) M. catarrhalis [8, 30] | MIC (μg/mL) P. mirabilis [9, 31] | MIC (μg/mL) P. vulgaris [10, 32]
25 µg/mL: MIC (μg/mL) K. pneumonia [4, 26] | MIC (μg/mL) A. hydrophila [6, 28]
50 µg/mL: MIC [1] | MIC (μg/mL) S. marcescens [11, 33]

PRT620 (CPCHNGFSCSVMPETEEVVCNNCPPGVTGARCELCADGYFGDPFGEHGPVRPCQP; listed as Homo sapiens)
12.5 µg/mL: MIC E. coli BL21 [2, 23] | MIC E. cloacae [5, 23] | MIC C. diversus [7, 23] | MIC P. vulgaris [10, 23]
50 µg/mL: MIC K. pneumonia [4, 23] | MIC A. hydrophila [6, 23] | MIC M. catarrhalis [8, 23]
25 µg/mL: MIC [1] | MIC P. aeruginosa [3, 23] | MIC P. mirabilis [9, 23] | MIC S. marcescens [11, 23]

PRT147 (DINECEINNGGCSVAPPVECVNTPGSSHCQACPPGYQGDGRVCT; listed as Homo sapiens)
12.5 µg/mL: MIC [1] | MIC (μg/mL) E. coli BL21 [2, 24] | MIC (μg/mL) P. aeruginosa [3, 25] | MIC (μg/mL) K. pneumonia [4, 26] | MIC (μg/mL) E. cloacae [5, 27] | MIC (μg/mL) A. hydrophila [6, 28] | MIC (μg/mL) C. diversus [7, 29] | MIC (μg/mL) M. catarrhalis [8, 30] | MIC (μg/mL) P. mirabilis [9, 31] | MIC (μg/mL) S. marcescens [11, 33]
25 µg/mL: MIC (μg/mL) P. vulgaris [10, 32]

PRT222 (DVDECAQALHDCRPSQDCHNLPGSYQCTCPDGYRKIGPECV; listed as Homo sapiens)
50 µg/mL: MIC [1]
25 µg/mL: MIC (μg/mL) E. cloacae [5, 27] | MIC (μg/mL) C. diversus [7, 29] | MIC (μg/mL) P. mirabilis [9, 31] | MIC (μg/mL) S. marcescens [11, 33]
12.5 µg/mL: MIC (μg/mL) E. coli BL21 [2, 24] | MIC (μg/mL) P. aeruginosa [3, 25] | MIC (μg/mL) K. pneumonia [4, 26] | MIC (μg/mL) A. hydrophila [6, 28] | MIC (μg/mL) M. catarrhalis [8, 30] | MIC (μg/mL) P. vulgaris [10, 32]

PRT403 (DNDECSAQPGPCGAHGHCHNTPGSFRCECHQGFTLVSSGHGCE; listed as Homo sapiens)
25 µg/mL: MIC [2, 24] | MIC [4, 26] | MIC [6, 28] | MIC [8, 30] | MIC [10, 32]
50 µg/mL: MIC [3, 25] | MIC [7, 29] | MIC [11, 33]
12.5 µg/mL: MIC [1] | MIC [5, 27] | MIC [9, 31]

PRT171 (CDPSPCKNGGSCTDLENSYSCTCPPGFYGKIC; listed as Homo sapiens)
25 µg/mL: MIC [1] | MIC (μg/mL) P. aeruginosa [3, 25] | MIC (μg/mL) E. cloacae [5, 27] | MIC (μg/mL) C. diversus [7, 29] | MIC (μg/mL) P. mirabilis [9, 31] | MIC (μg/mL) S. marcescens [11, 33]
50 µg/mL: MIC (μg/mL) E. coli BL21 [2, 24] | MIC (μg/mL) A. hydrophila [6, 28] | MIC (μg/mL) P. vulgaris [10, 32]
12.5 µg/mL: MIC (μg/mL) K. pneumonia [4, 26] | MIC (μg/mL) M. catarrhalis [8, 30]

PRT1101 (MKDPCFSNPCQGSATCVNTPGERSFLCKCPPGYSGTICE; listed as Homo sapiens)
25 µg/mL: MIC [1] | MIC P. aeruginosa [3, 12] | MIC E. cloacae [5, 12] | MIC M. catarrhalis [8, 12] | MIC P. vulgaris [10, 12]
50 µg/mL: MIC E. coli BL21 [2, 12] | MIC A. hydrophila [6, 12] | MIC P. mirabilis [9, 12]
12.5 µg/mL: MIC K. pneumonia [4, 12] | MIC C. diversus [7, 12] | MIC S. marcescens [11, 12]
